# Results reported in patent US20030036556A1, “Zonisamide use in headache” (priority 2001, published 2003).
# Read-outs that look alike come from different tables or passages of the source.
# Legend:
# T-type Ca2+ currents = settings: in vitro, cited from earlier work
# [1] = tested on: interictal spikes and secondarily generalized seizures; settings: cortical application of tungstic acid gel in rats; cited from earlier work
# [2] = tested on: chronic pain disorders, all with neuropathic pain; experiment: Zonisamide treatment of chronic pain patients (Example 4); type: in vivo, human
# Experimental: This study included 30 patients with various chronic pain disorders, all with neuropathic pain (Table 1). All patients had previously failed or responded minimally to numerous other anticonvulsants (neuronal stabilizing agents) for treatment of painful symptoms. Twenty-three patients were on such therapy at the time zonisamide therapy was initiated. Zonisamide therapy was initiated at 100 mg every fourth day for 3 to 6 doses, with an increase to every third day, then to every other day, and finally to a daily dose. Adjustments in the dose of zonisamide were made no more than every 2 weeks. Headache and pain scores were rated on a 0 to 10 numeric rating scale (NRS) by each patient.
# sodium channels = settings: in vitro, cited from earlier work
# [3] = tested on: chronic pain disorders (neuropathic pain), refractory migraine headaches; experiment: Zonisamide treatment of chronic pain and refractory headache patients (Example 3); type: in vivo, human
# Description: Twenty-five patients with various chronic pain disorders were selected for treatment with zonisamide. All had neuropathic pain of one kind or another. Fifteen had failed back/neck surgeries with ongoing radicular pain, 4 had complex regional pain syndrome (type 1), 4 had diabetic neuropathy, and 2 had painful sensory neuropathy. All had failed, or responded minimally at best, to trials of numerous other anticonvulsants (neuronal stabilizing agents) for prior treatment of pain symptoms. Eighteen were on such therapy at the time of starting zonisamide therapy. Twenty-two patients with refractory migraine headaches of mixed headache disorders were similarly selected for zonisamide therapy. Most (n=17) had failed 3 or more other neuronal stabilizing agents as prophylaxis therapy for their headaches. […] Zonisamide was begun at 100 mg every third day for 3 to 5 doses, with an increase to every-other-day dosing and then to a daily dose. Dosage changes were made every 2 weeks at a minimum. Headache and pain spores were rated on a 0 to 10 numeric rating scale by each patient.
# [4] = tested on: GABA/benzodiazepine receptor ionophore complex; settings: in vitro, cited from earlier work
# rat hippocampal slices = settings: zonisamide 10-30 μg/mL; cited from earlier work
# [5] = tested on: refractory migraines and mixed headache disorders; experiment: Open-label adjunctive zonisamide treatment of refractory headache patients (Example 1); type: in vivo, human
# Experimental: Thirty-three (33) patients from an active headache clinic population were selected for open-label treatment with zonisamide. All patients had refractory migraines and mixed headache disorders, as defined by International Headache Society criteria. All had failed or responded poorly to trials with other anticonvulsants as prophylactic therapy. Most patients (n=27) had failed at least 2 such agents, and 17 had failed 3 agents. […] (Table 1). Zonisamide was initiated as adjunctive therapy: 100 mg of the medication was given in the evening or at bedtime every fourth day for 4 to 5 doses. Consequently, dosing was increased to every third day, every other day, and finally to a daily dose. Dose adjustments of zonisamide were made in increments of 100 mg, every 2 to 3 weeks, with a daily maximum dose of 500 mg, in some cases. Headache severity was rated on a 0 to 10 numeric rating scale (NRS).
# [6] = tested on: interictal spikes and secondarily generalized seizures; settings: cortical freezing in cats; cited from earlier work
# [7] = tested on: cultured mouse spinal cord neurons; settings: zonisamide 10-30 μg/mL; cited from earlier work
# [8] = tested on: generalized seizures in the kindled rat model; settings: cited from earlier work
# cortical focal seizures = settings: electrical stimulation of the visual cortex in cats; cited from earlier work
# [9] = tested on: dopaminergic and serotonergic neurotransmission; settings: in vivo microdialysis; cited from earlier work
# [10] = tested on: CDH (chronic daily headache); experiment: Zonisamide for prophylaxis of chronic daily headache (Example 2); type: in vivo, human; settings: for Mean number of headache days per month: baseline 22
# Experimental: Sixteen patients who received zonisamide for prophylaxis of CDH (i.e., >15 headache days/month) for at least 3 months were included in this study. […] Zonisamide therapy was initiated at 100 mg/day, and 6 patients were titrated to a zonisamide dosage of 200 mg/day after 2 weeks. Patient headache diaries were used to record information, regarding headache frequency, duration, severity, and disability ratings. Headache severity and disability were rated using a 4-point scale (0=none; 1=mild; 2=moderate; 3=severe). Headache diaries and clinic records were used to determine mean headache duration, frequency, severity, disability for each patient 1 month prior to initiation of zonisamide therapy (baseline) and again 3 months after stable zonisamide dosage was established.
compound,measurement,setting,value
"NS(=O)(=O)Cc1noc2ccccc12 [zonisamide, 1,2-benzisoxazole-3-methanesulfonamide]","effect on voltage-dependent, transient inward currents (T-type Ca2+ currents)",T-type Ca2+ currents,reduces
same,"effect on voltage-dependent, transient inward currents (T-type Ca2+ currents)",T-type Ca2+ currents; listed as Zonisamide,blocks
same,interictal spikes and secondarily generalized seizures,[1],suppressed
same,number of patients with no pain relief and/or reported side effects,[2]; 30 patients,5 patients
same,number of patients with slight (less than 25%) pain reductions,[2]; 30 patients,Five
same,number of patients with pain reductions of 60% or greater,"[2]; after at least 2 months of zonisamide therapy, 30 patients",10 patients
same,number of patients with 30% to 50% reductions in pain,"[2]; after at least 2 months, 30 patients",7 patients
same,share of patients with 30% to 50% reductions in pain,[2]; of 30 patients,23%
same,share of patients with no pain relief and/or reported side effects,[2]; of 30 patients,17%
same,share of patients with pain reductions of 60% or greater,[2]; of 30 patients,30%
same,share of patients with slight (less than 25%) pain reductions,[2]; of 30 patients,17%
same,effect on sodium channels,sodium channels,blocks
same,effect on sodium channels,sodium channels; listed as Zonisamide,inhibits
same,number of patients with pain reductions averaging 60% or better,[3]; 0 to 10 numeric rating scale,6 patients
same,number of patients with reductions in pain of 30% to 50%,[3]; 0 to 10 numeric rating scale,Six
same,number of patients with slight reductions (less than 25%),[3]; 0 to 10 numeric rating scale,Four
same,number of patients with no pain relief and/or side effects,"[3]; human, in vivo",7 patients
same,binding to the GABA/benzodiazepine receptor ionophore complex,[4]; allosteric fashion,binds
same,changes in chloride flux,[4],does not produce changes
same,neuronal or glial uptake of [3H]-GABA,rat hippocampal slices,without affecting
same,number of patients (n) with discontinuation due to side effects,[5]; 33 patients,4
same,number of patients (n) with no response,[5]; 33 patients,3
same,number of patients (n) with 25% to 50% decrease in headache frequency,"[5]; after at least 2 months of zonisamide therapy, 33 patients",8
same,number of patients (n) with ≧65% decrease in headache frequency,"[5]; after at least 2 months of zonisamide therapy, 33 patients, 10 still in titration",6
same,patients who did not respond,[5]; of 33 patients,9 % of total
same,patients who dropped the medication due to side effects,[5]; of 33 patients,12 % of total
same,interictal spikes and secondarily generalized seizures,[6],suppressed
same,post-synaptic GABA or glutamate responses,[7],without affecting
same,synaptically-driven electrical activity,[7],suppresses
same,effect on threshold for generalized seizures,[8],anticonvulsant activity
same,duration of cortical focal seizures,cortical focal seizures,reduced the duration
same,dopaminergic and serotonergic neurotransmission,[9],facilitates
same,Mean disability rating,"[10]; 4-point scale (0=none to 3=severe), after 3 months, baseline 1.48",1.12
same,Mean headache severity rating,"[10]; 4-point scale (0=none to 3=severe), after 3 months, baseline 1.84",1.41
same,Mean headache duration,"[10]; after 3 months at stable dosage, mean dosage 137.5 mg/d, baseline 8.46",6.41 h
same,Mean number of headache days per month,"[10]; after 3 months at stable dosage, mean dosage 137.5 mg/d, n=16",5 days/month
same,Mean number of headache days per month,"[10]; after 3 months at stable dosage, mean dosage 137.5 mg/d, n=16, listed as Zonismide",14.5 days/month
same,decrease of mean disability rating,[10]; after 3 months vs baseline,24%
same,decrease of mean headache rating,[10]; after 3 months vs baseline,23%
same,reduction of mean headache duration,[10]; after 3 months vs baseline,24%
same,reduction of total headache time,[10]; after 3 months vs baseline,50%
same,reduction of mean number of headache days/month,"[10]; after 3 months vs baseline, mean dosage 137.5 mg/d",34%
same,mean weight loss,[10]; in the 9 patients with weight loss,11 lb.
same,adverse events: number of patients with mild diarrhea,[10]; n=16,2 patients
same,adverse events: number of patients with weight loss,[10]; n=16,9 patients
same,tolerability,"[10]; n=16, 3 months",well tolerated
same,Total headache time,"[10]; on zonisamide after 3 months, baseline 186",93 hours/month
